These are literature values, as cited in patent US20040228911A1, “Vinorelbine compositions and methods of use” (NeoPharm, Inc., priority 2001, published 2004).

The conditions of data set [1]: distilled water.
A further data set deals with mitotic microtubules. Particulars: intact tectal plates from mouse embryos.
Another data set concerns axonal microtubules. As to conditions: intact tectal plates from mouse embryos.

The structures appear in SMILES notation. Where a name gives a salt, the structure may show the parent alone.

As to `CCC1=C[C@@H]2CN(C1)Cc1c([nH]c3ccccc13)[C@@](C(=O)OC)(c1cc3c(cc1OC)N(C)[C@H]1[C@@](O)(C(=O)OC)[C@H](OC(C)=O)[C@]4(CC)C=CCN5CC[C@]31[C@@H]54)C2` [Vinorelbine tartrate, 3′,4′-didehydro-4′-deoxy-C-norvincaleukoblastine [R—(R,R)-2,3-dihydroxybutanedioate (1:2)(salt)]], the aqueous solubility entry in data set [1] is “less than 1000 mg/mL”.
Regarding `CC[C@]1(O)C[C@@H]2CN(CCc3c([nH]c4ccccc34)[C@@](C(=O)OC)(c3cc4c(cc3OC)N(C)[C@H]3[C@@](O)(C(=O)OC)[C@H](OC(C)=O)[C@]5(CC)C=CCN6CC[C@]43[C@@H]65)C2)C1` [vinblastine], the “concentration inhibiting mitotic microtubule formation, inducing a blockade of cells at metaphase” value in the data set on mitotic microtubules is 2 µM. For the same compound, the “concentration producing depolymerization of axonal microtubules” value (“concentration producing depolymerization” below) with axonal microtubules was 30 µM.
For `CC[C@]1(O)C[C@H]2CN(CCc3c([nH]c4ccccc34)[C@@](C(=O)OC)(c3cc4c(cc3OC)N(C=O)[C@H]3[C@@](O)(C(=O)OC)[C@H](OC(C)=O)[C@]5(CC)C=CCN6CC[C@]43[C@@H]65)C2)C1` [vincristine], the “concentration inhibiting mitotic microtubule formation, inducing a blockade of cells at metaphase” value with mitotic microtubules is 2 µM. Moreover, the “concentration producing depolymerization” value in the data set on axonal microtubules was 5 µM.
As for `CCC1=C[C@@H]2CN(C1)Cc1c([nH]c3ccccc13)[C@@](C(=O)OC)(c1cc3c(cc1OC)N(C)[C@H]1[C@@](O)(C(=O)OC)[C@H](OC(C)=O)[C@]4(CC)C=CCN5CC[C@]31[C@@H]54)C2` [vinorelbine, 3′,4′-didehydro-4′-deoxy-C-norvincaleukoblastine [R—(R,R)-2,3-dihydroxybutanedioate (1:2)(salt)]], in the data set on mitotic microtubules, the “concentration inhibiting mitotic microtubule formation, inducing a blockade of cells at metaphase” value was 2 µM. The “concentration producing depolymerization” value in the data set on axonal microtubules was 40 µM.
